Reference: patent publication US20240287074A1, “SALTS AND CRYSTALS” (Kinoxis Therapeutics Pty Ltd, priority 2020, published 2024)
Structures can show the parent of a compound that is named as a salt. Marks after values point to notes of the source that are not given here.

Experiments:
[1] = Dynamic / gravimetric vapour sorption (DVS/GVS) hygroscopicity; type: physicochemical
Experimental: Approximately, 10-20 mg of sample was placed into a mesh vapour sorption balance pan and loaded into a DVS Intrinsic dynamic vapour sorption balance by Surface Measurement Systems. The sample was subjected to a ramping profile from 40-90% relative humidity (RH) at 10% increments, maintaining the sample at each step until a stable weight had been achieved (dm/dt 0.004%, minimum step length 30 minutes, maximum step length 500 minutes) at 25° C. After completion of the sorption cycle, the sample was dried using the same procedure to 0% RH and then a second sorption cycle back to 40% RH. Two cycles were performed. The weight change during the sorption/desorption cycles were plotted, allowing for the hygroscopic nature of the sample to be determined. XRPD analysis was then carried out on any solid retained.
Approximately 10-20 mg of sample was placed into a mesh vapour sorption balance pan and loaded into an IGASorp Moisture Sorption Analyser balance by Hiden Analytical. The sample was subjected to a ramping profile from 40-90% relative humidity (RH) at 10% increments, maintaining the sample at each step until a stable weight had been achieved (98% step completion, minimum step length 30 minutes, maximum step length 60 minutes) at 25° C. After completion of the sorption cycle, the sample was dried using the same procedure to 0% RH, and finally taken back to the starting point of 40% RH. Two cycles were performed. The weight change during the sorption/desorption cycles were plotted, allowing for the hygroscopic nature of the sample to be determined.

[2] = Primary salt screen: XRPD pattern after drying and after 40° C./75% RH; type: physicochemical
Experimental: The following procedure was used: • Approximately 30 mg of 1-methyl-1,4,5,10-tetrahydropyrazolo[3,4-b][1,5]benzodiazepine freebase was weighed into 5×1.5 mL glass vials. • 300 μL of selected solvent system was added to each vial to form a mobile slurry, and a beige slurry was observed. • 1.05 (or 0.525 for the hemi experiments) equivalents of acid counterion (see Table 1) was added to each sample and initial observations were recorded. • The samples were temperature cycled between ambient and 40° C. in 4-hour cycles for about 72 hours. • The samples were collected, and observations made. • Samples in which solids were observed were filtered via centrifugation and the solids were loaded onto a multi-well XRPD plate and analyzed by XRPD. • Samples in which no solids were observed were uncapped and left undisturbed to allow evaporation at ambient temperature.

[3] = Thermodynamic solubility in PBS buffer pH 7.4; type: physicochemical
Experimental: The thermodynamic solubility of freebase (example 1), phosphate form 1 (example 3) and L-tartrate form 1 (example 5) were assessed in phosphate buffered saline (PBS) buffer at pH 7.4 according to the following procedure: • Approximately 30 mg of each form was weighed into 2 mL glass vials. • 100 μL of buffer solution was added to each vial until partial dissolution was observed. • The observed slurries were agitated at ambient temperature for about 24 hours. • The samples were collected, and observations were recorded. • The samples were filtered via centrifugation. • The pH of the mother liquors were recorded. • The concentration of the mother liquors were recorded by HPLC.

[4] = Oral pharmacokinetics in rats; type: in vivo; conditions: male Sprague Dawley rats; for Plasma AUC0-inf/Dose / Plasma Cmax/Dose: dose-normalised; for Plasma AUC0-inf/Dose / Plasma Cmax/Dose / % Dose in urine: listed as Phosphate salt; for Apparent t1/2 / BA % / Plasma AUC0-inf / Plasma Cmax / Tmax / % Dose in urine: 5 mg/kg target dose (freebase equivalent), 5 mg/kg; for Apparent t1/2 / BA % / Plasma AUC0-inf / Plasma Cmax / Tmax: mean ± SD, n = 3, listed as Phosphate salt; for % Dose in urine: urine up to 24 h
Experimental: N=3 rats were run in each of the four conditions: • (1) Di-HCL salt in saline • (2) Di-HCL salt in methocel • (3) Phosphate form 1 in saline • (4) Phosphate form 1 in methocel
On the day of dosing the solid compounds were dissolved in either Saline (0.9%) or 0.5% hydroxypropyl methylcellulose (Methocel E3 Premium LV) in Milli-Q water. The formulations were then thoroughly vortexed to produce colourless solutions.
Overnight-fasted rats with adlibitum access to water were administered their dose of the various forms of the compound of the invention via oral gavage (PO) at a dose volume of 3 ml/kg and a dose of 5 mg/kg freebase equivalent. Food access was re-instated 4 hours (h) post-dose. Samples of arterial blood were collected up to 24 h post-dose. After collection, samples were centrifuged, plasma was removed and stored frozen at −80° C. before being analysed by LC-MS. Urine samples were collected at pre, 0-4 h, 4-7 h and 7-24 h post-dose and were analysed by LC-MS following extraction.

[5] = tested on: C57BL/6 mouse model of opioid withdrawal; assay: Naloxone precipitated oxycodone withdrawal-induced jumping; type: in vivo; conditions: 7.3 mg/kg FBE i.p., C57BL/6 mice, 30 min session, vs OXY_VEH
Experimental: Two cohorts of adult male C57BL/6 mice were run assessing the effects of 7.3 mg/kg freebase equivalent (FBE) IP of the compound of the invention in the dihydrochloride salt form (CMPD1-2HCL) and the phosphate form 1 (CMPD1-PO4) on naloxone precipitated withdrawal-induced jumping.
The first cohort of mice (N=30) were split into the following conditions: • (1) Vehicle, 0 mg/kg (n=10); • (2) oxycodone, 0 mg/kg compound of the invention FBE in 2HCL salt form (n=10); • (3) oxycodone, 7.3 mg/kg compound of the invention FBE in 2HCL salt form (n=10).
The second cohort of mice (N=24) were split into the following conditions: • (1) Vehicle, 0 mg/kg (n=8); • (2) oxycodone, 0 mg/kg compound of the invention FBE in PO4 salt form (n=8); • (3) oxycodone, 7.3 mg/kg compound of the invention FBE in PO4 salt form (n=8).
Mice in the oxycodone conditions received i.p. injections of oxycodone for 5 days according to the schedule and doses set out in Table 8. The morning and afternoon doses were separated by 7 h. Mice in the vehicle condition received injections of vehicle saline instead of oxycodone. […]
Testing involved placing mice individually into a 20 (I)×20 (w)×30 (h) cm arena for 30 min. […] Number of jumps were scored from the videos by an experienced experimenter blind to conditions.
Data were analysed by SPSS using oneway ANOVA and planned contrasts.

Structure (SMILES): Cn1ncc2c1Nc1ccccc1NC2 [Phosphate form 1, phosphoric acid addition salt of 1-methyl-1,4,5,10-tetrahydropyrazolo[3,4-b][1,5]benzodiazepine]
- change in form by XRPD post-DVS analysis [1]: No evidence of form changes or hydrate formation
- hygroscopicity ([1]; DVS, 25° C.): slightly hygroscopic
- DVS mass increase ([1]; at 90% RH): about 0.4%
- thermal stability and hygroscopicity ([2]; conclusion of salt screen): acceptable thermal stability and hygroscopicity
- Post-Drying (XRPD pattern) ([2]; oven at 40° C. for about 24 hours, listed as Phosphate pattern 1): Pattern 1
- Comments (stability) ([2]; salt screen summary): Good
- Post 40° C./75% RH (XRPD pattern) ([2]; stability chamber at 40° C./75% RH for about 24 hours, listed as Phosphate pattern 1): Pattern 1
- solubility ([3]; PBS buffer at pH 7.4, ambient temperature, about 24 hours, HPLC): 7400 µg/mL
- pH (t = 24 h) ([3]; mother liquor of PBS pH 7.4 slurry): 3.48
- Plasma AUC0-inf/Dose ([4]; Methocel): 0.85 ± 0.18 (μg*h/mL)/(mg/kg)
- Plasma Cmax/Dose ([4]; Methocel): 0.41 ± 0.05 (μg/mL)/(mg/kg)
- Plasma AUC0-inf/Dose ([4]; Saline): 1.02 ± 0.36 (μg*h/mL)/(mg/kg)
- Plasma Cmax/Dose ([4]; Saline): 0.43 ± 0.03 (μg/mL)/(mg/kg)
- Apparent t1/2 ([4]; Methocel): 36 ± 1.2 min
- BA % ([4]; Methocel): 93.2 ± 20^b %
- Plasma AUC0-inf ([4]; Methocel): 4160 ± 880 ng·h/mL
- Plasma Cmax ([4]; Methocel): 2010 ± 250 ng/mL
- Tmax ([4]; Methocel): 15 ± 0 min
- % Dose in urine ([4]; Methocel): 0.222 ± 0.093%
- Apparent t1/2 ([4]; Saline): 48.6 ± 12 min
- BA % ([4]; Saline): 111 ± 40^b %
- Plasma AUC0-inf ([4]; Saline): 4950 ± 1750 ng·h/mL
- Plasma Cmax ([4]; Saline): 2090 ± 140 ng/mL
- Tmax ([4]; Saline): 30 ± 24 min
- % Dose in urine ([4]; Saline): 0.395^d %
- exposure profile compared with dihydrochloride salt form ([4]; saline or methocel vehicle): same exposure profile
- oxycodone withdrawal-induced jumping [5]: significantly inhibited
